Assay results published in patent US20250179073A1, “TRICYCLIC HETEROCYCLE COMPOUNDS AS IAP ANTAGONISTS” (Ascentage Pharma (Suzhou) Co., Ltd., priority 2022, published 2025).

Each molecule was assayed on MDA-MB-231 cells (assay: Cell proliferation assay (CellTiter-Glo), MDA-MB-231). Details: Homo sapiens, MDA-MB-231, 72 h, 72 h treatment, Celltiter-Glo luminescence.
Format: cell-based
Protocol: Example 238: Cell Proliferation Assay
MDA-MB-231 and EVSA-T cells (10000 cells/well) were plated onto 96-well plates (Corning, Cat #3917) in 95 μL of medium (RPMI-1640 containing 10% FBS and MEM containing 10% FBS, respectively). Compounds with various concentrations ([…]) were added to the wells. After treatment for 72 h, 30 μL of Celltiter-Glo reagent (Promega, Cat #G7573) was added and incubated at room temperature for 15 min, then the luminescent signal was determined using a microplate reader (Biotek, SynergyH1). The inhibitor dose-response curves were analyzed using normalized IC50 regression curve fitting with control based normalization.

| SMILES | IC50 [nM] |
| --- | --- |
| C[C@@H]1CN(CC(=O)N2CC(C)(C)c3c2cc(N2CCOc4cc(F)ccc42)c2ncnn32)[C@@H](CN2CCOC[C@H]2C)CN1 [Compound 169, 1-(4-(7-fluoro-2,3-dihydro-4H-benzo[b][1,4]oxazin-4-yl)-8,8-dimethyl-7,8-dihydro-6H-pyrrolo[2,3-e][1,2,4]triazolo[1,5-a]pyridin-6-yl)-2-((2R,5R)-5-methyl-2-(((R)-3-methylmorpholino)methyl)piperazin-1-yl)ethan-1-one] | 980 |
| C[C@@H]1CN(CC(=O)N2CC(C)(C)c3c2cc(Cc2ccc(F)cc2)c2nc(=O)n(C)n32)[C@@H](CN2CCOC[C@H]2C)CN1 [compound 127, 4-(4-fluorobenzyl)-1,8,8-trimethyl-6-(2-((2R,5R)-5-methyl-2-(((R)-3-methylmorpholino)methyl)piperazin-1-yl)acetyl)-7,8-dihydro-1H-pyrrolo[2,3-e][1,2,4]triazolo[1,5-a]pyridin-2(6H)-one] | 3080 |
| C[C@@H]1CN(CC(=O)N2CC(C)(C)c3c2cc(Cc2ccc(F)cc2)c2nnc(N)n32)[C@@H](CN2CCOC[C@H]2C)CN1 [Compound 136, 1-(1-amino-4-(4-fluorobenzyl)-8,8-dimethyl-7,8-dihydro-6H-pyrrolo[2,3-e][1,2,4]triazolo[4,3-a]pyridin-6-yl)-2-((2R,5R)-5-methyl-2-(((R)-3-methylmorpholino)methyl)piperazin-1-yl)ethan-1-one] | 1390 |
| C[C@@H]1CN(CC(=O)N2CC(C)(C)c3c2cc(Cc2ccc(F)cc2)c2nn(CC(C)(C)O)c(=O)n32)[C@@H](CN2CC3CC(C2)O3)CN1 [Compound 286, 6-(2-((2R,5R)-2-((6-oxa-3-azabicyclo[3.1.1]heptan-3-yl)methyl)-5-methylpiperazin-1-yl)acetyl)-4-(4-fluorobenzyl)-2-(2-hydroxy-2-methylpropyl)-8,8-dimethyl-2,6,7,8-tetrahydro-1H-pyrrolo[2,3-e][1,2,4]triazolo[4,3-a]pyridin-1-one] | 270 |
| C[C@@H]1CN(CC(=O)N2CC(C)(C)c3c2cc(Cc2ccc(F)cc2)c2nc(C(=O)O)cn32)[C@@H](CN2CCOC[C@H]2C)CN1 [Compound 117, 4-(4-fluorobenzyl)-8,8-dimethyl-6-(2-((2R,5R)-5-methyl-2-(((R)-3-methylmorpholino)methyl)piperazin-1-yl)acetyl)-7,8-dihydro-6H-imidazo[1,2-a]pyrrolo[2,3-e]pyridine-2-carboxylic acid] | > 10000 |
| C[C@@H]1CN(CC(=O)N2CC(C)(C)c3c2cc(Cc2ccc(F)cc2)c2nc(NS(C)(=O)=O)nn32)[C@@H](CN2CCOC[C@H]2C)CN1 [Example 15, N-(4-(4-fluorobenzyl)-8,8-dimethyl-6-(2-((2R,5R)-5-methyl-2-(((R)-3-methylmorpholino)methyl)piperazin-1-yl)acetyl)-7,8-dihydro-6H-pyrrolo[2,3-e][1,2,4]triazolo[1,5-a]pyridin-2-yl)methanesulfonamide] | > 10000 |
| C[C@@H]1CN(CC(=O)N2CC(C)(C)c3c2cc(Cc2ccc(F)cc2)c2nc(C(F)(F)F)cn32)[C@@H](CN2CCN(S(C)(=O)=O)C[C@H]2C)CN1 [Compound 178, 1-(4-(4-fluorobenzyl)-8,8-dimethyl-2-(trifluoromethyl)-7,8-dihydro-6H-imidazo[1,2-a]pyrrolo[2,3-e]pyridin-6-yl)-2-((2R,5R)-5-methyl-2-(((R)-2-methyl-4-(methylsulfonyl)piperazin-1-yl)methyl)piperazin-1-yl)ethan-1-one] | 490 |
| C[C@@H]1CN(CC(=O)N2CC(C)(C)c3c2cc(Cc2ccc(F)cc2)c2nn(CC(C)(C)O)c(=O)n32)[C@@H](CN2C3CCC2COC3)CN1 [Compound 276, 6-(2-((2R,5R)-2-((3-oxa-8-azabicyclo[3.2.1]octan-8-yl)methyl)-5-methylpiperazin-1-yl)acetyl)-4-(4-fluorobenzyl)-2-(2-hydroxy-2-methylpropyl)-8,8-dimethyl-2,6,7,8-tetrahydro-1H-pyrrolo[2,3-e][1,2,4]triazolo[4,3-a]pyridin-1-one] | 390 |
| C[C@@H]1CN(CC(=O)N2CC(C)(C)c3c2cc(C(O)c2ccc(F)cc2F)c2ncnn32)[C@@H](CN2CCOC[C@H]2C)CN1 (stereo partly drawn) [Compound 50, 1-(4-((2,4-difluorophenyl)(hydroxy)methyl)-8,8-dimethyl-7,8-dihydro-6H-pyrrolo[2,3-e][1,2,4]triazolo[1,5-a]pyridin-6-yl)-2-((2R,5R)-5-methyl-2-(((R)-3-methylmorpholino)methyl)piperazin-1-yl)ethan-1-one] | > 10000 |

The remaining molecules from weak to strong by IC50, led by results:

| IC50 [nM] | SMILES |
| --- | --- |
| 490 | C[C@@H]1CN(CC(=O)N2CC(C)(C)c3c2cc(Cc2ccc(F)cc2)c2cc(C(F)(F)F)nn32)[C@@H](CN2CCOC[C@H]2C)CN1 [Compound 150, 1-(4-(4-fluorobenzyl)-8,8-dimethyl-2-(trifluoromethyl)-7,8-dihydro-6H-pyrazolo[1,5-a]pyrrolo[2,3-e]pyridin-6-yl)-2-((2R,5R)-5-methyl-2-(((R)-3-methylmorpholino)methyl)piperazin-1-yl)ethan-1-one] |
| 430 | C[C@@H]1CN(CC(=O)N2CC(C)(C)c3c2cc(Cc2c(F)cc(F)cc2F)c2nncn32)[C@@H](CN2CCOC[C@H]2C)CN1 [Compound 164, 1-(8,8-dimethyl-4-(2,4,6-trifluorobenzyl)-7,8-dihydro-6H-pyrrolo[2,3-e][1,2,4]triazolo[4,3-a]pyridin-6-yl)-2-((2R,5R)-5-methyl-2-(((R)-3-methylmorpholino)methyl)piperazin-1-yl)ethan-1-one] |
| 290 | Cc1nc(C)n2c3c(cc(Cc4ccc(F)cc4)c12)N(C(=O)CN1C[C@@H](C)NC[C@@H]1CN1CCOC[C@H]1C)CC3(C)C [Compound 124, 1-(4-(4-fluorobenzyl)-1,3,8,8-tetramethyl-7,8-dihydro-6H-imidazo[1,5-a]pyrrolo[2,3-e]pyridin-6-yl)-2-((2R,5R)-5-methyl-2-(((R)-3-methylmorpholino)methyl)piperazin-1-yl)ethan-1-one] |
| 270 | C[C@@H]1CN(CC(=O)N2CC(C)(C)c3c2cc(Cc2ccc(F)cc2)c2nc(C(F)(F)F)cn32)[C@@H](CN2CCOCC2(C)C)CN1 [Compound 146, 2-((2R,5R)-2-((3,3-dimethylmorpholino)methyl)-5-methylpiperazin-1-yl)-1-(4-(4-fluorobenzyl)-8,8-dimethyl-2-(trifluoromethyl)-7,8-dihydro-6H-imidazo[1,2-a]pyrrolo[2,3-e]pyridin-6-yl)ethan-1-one] |
| 260 | C[C@@H]1CN(CC(=O)N2CC(C)(C)c3c2cc(Cc2ccc(F)cc2)c2ncsc32)[C@@H](CN2CCOC[C@H]2C)CN1 [Example 27, 1-(4-(4-fluorobenzyl)-8,8-dimethyl-7,8-dihydro-6H-thiazolo[5,4-e]indol-6-yl)-2-((2R,5R)-5-methyl-2-(((R)-3-methylmorpholino)methyl)piperazin-1-yl)ethan-1-one] |
| 230 | Cc1nccn1C[C@H]1CN[C@H](C)CN1CC(=O)N1CC(C)(C)c2c1cc(Cc1ccc(F)cc1)c1nc(C(F)(F)F)cn21 [Compound 186, 1-(4-(4-fluorobenzyl)-8,8-dimethyl-2-(trifluoromethyl)-7,8-dihydro-6H-imidazo[1,2-a]pyrrolo[2,3-e]pyridin-6-yl)-2-((2R,5R)-5-methyl-2-((2-methyl-1H-imidazol-1-yl)methyl)piperazin-1-yl)ethan-1-one] |
| 190 | C[C@@H]1CN(CC(=O)N2CC(C)(C)c3c2cc(Cc2ccc(F)cc2)c2nn(Cc4ncccn4)c(=O)n32)[C@@H](CN2CCOC[C@H]2C)CN1 [Compound 221, 4-(4-fluorobenzyl)-8,8-dimethyl-6-(2-((2R,5R)-5-methyl-2-(((R)-3-methylmorpholino)methyl)piperazin-1-yl)acetyl)-2-(pyrimidin-2-ylmethyl)-2,6,7,8-tetrahydro-1H-pyrrolo[2,3-e][1,2,4]triazolo[4,3-a]pyridin-1-one] |
| 190 | C[C@@H]1CN(CC(=O)N2CC(C)(C)c3c2cc(S(=O)(=O)c2ccc(F)cc2)c2ncnn32)[C@@H](CN2CCOC[C@H]2C)CN1 [Compound 176, 1-(4-((4-fluorophenyl)sulfonyl)-8,8-dimethyl-7,8-dihydro-6H-pyrrolo[2,3-e][1,2,4]triazolo[1,5-a]pyridin-6-yl)-2-((2R,5R)-5-methyl-2-(((R)-3-methylmorpholino)methyl)piperazin-1-yl)ethan-1-one] |
| 150 | C[C@@H]1CN(CC(=O)N2CC(C)(C)c3c2cc(Sc2ccc(F)cn2)c2ncnn32)[C@@H](CN2CCOC[C@H]2C)CN1 [Compound 211, 1-(4-((5-fluoropyridin-2-yl)thio)-8,8-dimethyl-7,8-dihydro-6H-pyrrolo[2,3-e][1,2,4]triazolo[1,5-a]pyridin-6-yl)-2-((2R,5R)-5-methyl-2-(((R)-3-methylmorpholino)methyl)piperazin-1-yl)ethan-1-one] |
| 140 | C[C@@H]1CN(CC(=O)N2CC(C)(C)c3c2cc(Cc2ccc(F)cc2)c2cnc(C4CCOCC4)n32)[C@@H](CN2CCOC[C@H]2C)CN1 [Example 7, 1-(4-(4-fluorobenzyl)-8,8-dimethyl-1-(tetrahydro-2H-pyran-4-yl)-7,8-dihydro-6H-imidazo[1,5-a]pyrrolo[2,3-e]pyridin-6-yl)-2-((2R,5R)-5-methyl-2-(((R)-3-methylmorpholino)methyl)piperazin-1-yl)ethan-1-one] |
| 41 | C[C@@H]1CN(CC(=O)N2CC(C)(C)c3c2cc(Cc2ccc(F)cc2)c2nn(C4CNC4)c(=O)n32)[C@@H](CN2CCOC[C@H]2C)CN1 [Compound 249, 2-(azetidin-3-yl)-4-(4-fluorobenzyl)-8,8-dimethyl-6-(2-((2R,5R)-5-methyl-2-(((R)-3-methylmorpholino)methyl)piperazin-1-yl)acetyl)-2,6,7,8-tetrahydro-1H-pyrrolo[2,3-e][1,2,4]triazolo[4,3-a]pyridin-1-one] |
